Experimental data published in US12377104B1, “Methods for treating a fatty liver disease” (Madrigal Pharmaceuticals, Inc., priority 2024, dated 2025).

Tested on: NASH patients
Experiment: MAESTRO-NASH: efficacy by baseline body weight and BMI
Type: in vivo, human
Conditions: for ≥30% Reduction in MRI-PDFF at Week 52, Assessment (%) / ≥120% Increase in SHBG at Week 52, Assessment (%): post hoc
Experimental: In the MAESTRO-NASH study, randomization to 80 mg and 100 mg doses was equal across all body weights. Analyses were conducted to provide additional evidence of a relationship between resmetirom dose, baseline body weight and body mass index (BMI), and safety/efficacy readouts. […] The only variable that determined exposure to resmetirom in the NASH population was body weight. […] Study median body weight was 100 kg. […] et al. (2024). CAP was stable over time, both doses showing a similar durable response (FIG. 30B).

## CC(C)c1cc(Oc2c(Cl)cc(-n3nc(C#N)c(=O)[nH]c3=O)cc2Cl)n[nH]c1=O [Resmetirom, 2-(3,5-dichloro-4-((5-isopropyl-6-oxo-1,6-dihydropyridazin-3-yl)oxy)phenyl)-3,5-dioxo-2,3,4,5-tetrahydro-1,2,4-triazine-6-carbonitrile]
80 mg, 80-<90 kg
  Discontinued Study Prior to Week 52: number: 6
  Discontinued Study Prior to Week 52: percentage (in parentheses): (10.3)
  Week 52 MITT Consensus Fibrosis Improvement Responder: number: 20
  Week 52 MITT Consensus Fibrosis Improvement Responder: percentage (in parentheses): (34.5)
  Week 52 MITT Consensus NASH Resolution Responder: number: 17
  Week 52 MITT Consensus NASH Resolution Responder: percentage (in parentheses): (29.3)
  Week 52 Paired Biopsies Consensus Fibrosis Improvement Responder: number: 20
  Week 52 Paired Biopsies Consensus Fibrosis Improvement Responder: percentage (in parentheses): (40.8)
  Week 52 Paired Biopsies Consensus NASH Resolution Responder: number: 17
  Week 52 Paired Biopsies Consensus NASH Resolution Responder: percentage (in parentheses): (34.7)
  ≥30% reduction in MRI-PDFF at Week 52: number of patients: 28
  ≥30% reduction in MRI-PDFF at Week 52: percentage of patients (in parentheses): (63.6)
  ≥120% increase in SHBG at Week 52: number of patients: 30
  ≥120% increase in SHBG at Week 52: percentage of patients (in parentheses): (56.6)
80 mg, 90-<100 kg
  Discontinued Study Prior to Week 52: number: 6
  Discontinued Study Prior to Week 52: percentage (in parentheses): (10.2)
  Week 52 MITT Consensus Fibrosis Improvement Responder: number: 15
  Week 52 MITT Consensus Fibrosis Improvement Responder: percentage (in parentheses): (25.4)
  Week 52 MITT Consensus NASH Resolution Responder: number: 15
  Week 52 MITT Consensus NASH Resolution Responder: percentage (in parentheses): (25.4)
  Week 52 Paired Biopsies Consensus Fibrosis Improvement Responder: number: 15
  Week 52 Paired Biopsies Consensus Fibrosis Improvement Responder: percentage (in parentheses): (30.6)
  Week 52 Paired Biopsies Consensus NASH Resolution Responder: number: 15
  Week 52 Paired Biopsies Consensus NASH Resolution Responder: percentage (in parentheses): (30.6)
  ≥30% reduction in MRI-PDFF at Week 52: number of patients: 28
  ≥30% reduction in MRI-PDFF at Week 52: percentage of patients (in parentheses): (62.2)
  ≥120% increase in SHBG at Week 52: number of patients: 28
  ≥120% increase in SHBG at Week 52: percentage of patients (in parentheses): (52.8)
80 mg, 100-<110 kg
  Discontinued Study Prior to Week 52: number: 3
  Discontinued Study Prior to Week 52: percentage (in parentheses): (6.5)
  Week 52 MITT Consensus Fibrosis Improvement Responder: number: 8
  Week 52 MITT Consensus Fibrosis Improvement Responder: percentage (in parentheses): (17.4)
  Week 52 MITT Consensus NASH Resolution Responder: number: 13
  Week 52 MITT Consensus NASH Resolution Responder: percentage (in parentheses): (28.3)
  Week 52 Paired Biopsies Consensus Fibrosis Improvement Responder: number: 8
  Week 52 Paired Biopsies Consensus Fibrosis Improvement Responder: percentage (in parentheses): (22.2)
  Week 52 Paired Biopsies Consensus NASH Resolution Responder: number: 13
  Week 52 Paired Biopsies Consensus NASH Resolution Responder: percentage (in parentheses): (36.1)
  ≥30% reduction in MRI-PDFF at Week 52: number of patients: 23
  ≥30% reduction in MRI-PDFF at Week 52: percentage of patients (in parentheses): (67.6)
  ≥120% increase in SHBG at Week 52: number of patients: 14
  ≥120% increase in SHBG at Week 52: percentage of patients (in parentheses): (34.1)
80 mg, <80 kg
  Discontinued Study Prior to Week 52: number: 6
  Discontinued Study Prior to Week 52: percentage (in parentheses): (10.0)
  Week 52 MITT Consensus Fibrosis Improvement Responder: number: 17
  Week 52 MITT Consensus Fibrosis Improvement Responder: percentage (in parentheses): (28.3)
  Week 52 MITT Consensus NASH Resolution Responder: number: 15
  Week 52 MITT Consensus NASH Resolution Responder: percentage (in parentheses): (25.0)
  Week 52 Paired Biopsies Consensus Fibrosis Improvement Responder: number: 17
  Week 52 Paired Biopsies Consensus Fibrosis Improvement Responder: percentage (in parentheses): (34.7)
  Week 52 Paired Biopsies Consensus NASH Resolution Responder: number: 15
  Week 52 Paired Biopsies Consensus NASH Resolution Responder: percentage (in parentheses): (30.6)
  ≥30% reduction in MRI-PDFF at Week 52: number of patients: 34
  ≥30% reduction in MRI-PDFF at Week 52: percentage of patients (in parentheses): (73.9)
  ≥120% increase in SHBG at Week 52: number of patients: 39
  ≥120% increase in SHBG at Week 52: percentage of patients (in parentheses): (72.2)
80 mg, body weight >100 kg
  ≥30% Reduction in MRI-PDFF at Week 52, Assessment (%): 56.7%
  ≥120% Increase in SHBG at Week 52, Assessment (%): 29.6%
80 mg, body weight ≤100 kg
  ≥30% Reduction in MRI-PDFF at Week 52, Assessment (%): 66.9%
  ≥120% Increase in SHBG at Week 52, Assessment (%): 60.9%
80 mg, ≥110 kg
  Discontinued Study Prior to Week 52: number: 19
  Discontinued Study Prior to Week 52: percentage (in parentheses): (19.2)
  Week 52 MITT Consensus Fibrosis Improvement Responder: number: 17
  Week 52 MITT Consensus Fibrosis Improvement Responder: percentage (in parentheses): (17.2)
  Week 52 MITT Consensus NASH Resolution Responder: number: 17
  Week 52 MITT Consensus NASH Resolution Responder: percentage (in parentheses): (17.2)
  Week 52 Paired Biopsies Consensus Fibrosis Improvement Responder: number: 17
  Week 52 Paired Biopsies Consensus Fibrosis Improvement Responder: percentage (in parentheses): (22.7)
  Week 52 Paired Biopsies Consensus NASH Resolution Responder: number: 17
  Week 52 Paired Biopsies Consensus NASH Resolution Responder: percentage (in parentheses): (22.7)
  ≥30% reduction in MRI-PDFF at Week 52: number of patients: 33
  ≥30% reduction in MRI-PDFF at Week 52: percentage of patients (in parentheses): (51.6)
  ≥120% increase in SHBG at Week 52: number of patients: 21
  ≥120% increase in SHBG at Week 52: percentage of patients (in parentheses): (28.0)
100 mg, 80-<90 kg
  Discontinued Study Prior to Week 52: number: 4
  Discontinued Study Prior to Week 52: percentage (in parentheses): (8.2)
  Week 52 MITT Consensus Fibrosis Improvement Responder: number: 13
  Week 52 MITT Consensus Fibrosis Improvement Responder: percentage (in parentheses): (26.5)
  Week 52 MITT Consensus NASH Resolution Responder: number: 16
  Week 52 MITT Consensus NASH Resolution Responder: percentage (in parentheses): (32.7)
  Week 52 Paired Biopsies Consensus Fibrosis Improvement Responder: number: 13
  Week 52 Paired Biopsies Consensus Fibrosis Improvement Responder: percentage (in parentheses): (31.7)
